Source: patent US20250344698A1, “A METHOD OF CONTROLLING WEEDS” (SYNGENTA CROP PROTECTION AG, priority 2022, published 2025)

Experiments:
Format in all cases: in vivo
[1] = system: Amaranthus palmeri known PPO inhibitor sensitive population ('Sensitive'); test: Postemergence glasshouse test, dead or alive assessment, PPO inhibitor sensitive population; conditions: 14 days after application; for use rate achieving complete control (i.e. no surviving plants): 'Sensitive' population, postemergence; for Average % Survival of 14 repetitions: Sensitive
From the text: (§1) The commercial standard PPO inhibitor fomesafen and compound 8 of the present application were applied to three Amaranthus palmeri populations in order to determine the impact of mutations at codon 128 in PPX2L from the wild-type arginine to a glycine or methionine.
(§2) Seeds were sown in seed trays containing ericaceous compost and covered with vermiculite. When approximately 1 inch in height plants were transplanted 1 per pot into 3 inch diameter pots containing ericaceous compost. The pots were watered and maintained in a glasshouse providing a 16 H photoperiod of 180 μmol m^−2 s^−1 with temperatures of 24° C. day and 18° C. night and 65% relative humidity until 3 inches tall at which point the herbicides were applied at the use rates specified in Table 1 below to 14 individual plants per rate of each of the biotypes.
(§3) All treatments were applied as dilutions in reverse osmosis water and with the commercial adjuvant Adigor® at 0.5% by volume. Prior to dilution with water compound 8 was initially dissolved to a 5% solution in a solvent mixture comprising 11.12% Emulsogen EL 360, 44.44% Dowanol DPM and 44.44% N-methyl pyrrolidone. Herbicide applications were carried out in a track sprayer with a flat fan nozzle applying the herbicide treatments at a rate of 200 L/ha^−1.
(§4) After treatment, the plants were watered and maintained in a glasshouse providing a 16 H photoperiod of 180 μmol m^−2 s^−1 with temperatures of 24° C. day and 18° C. night and 65% relative humidity until 14 days after application at which point they were assessed on a ‘dead or alive’ basis. The plants still alive at this point were classed as surviving the herbicide application and the averaged results of this assessment are presented in Table 1.

[2] = system: Amaranthus palmeri population homozygous for a glycine at codon 128 in PPX2L ('128G'); test: Postemergence glasshouse test, dead or alive assessment, 128G population; conditions: 14 days after application; for Average % Survival of 14 repetitions: R128G
From the text: as §1, §2, §3, §4

[3] = system: Amaranthus palmeri population homozygous for a methionine at codon 128 in PPX2L ('128M'); test: Postemergence glasshouse test, dead or alive assessment, 128M population; conditions: 14 days after application; for use rate achieving complete control (i.e. no surviving plants): '128M' population, postemergence; for Average % Survival of 14 repetitions: R128M
From the text: as §1, §2, §3, §4

Compound | use rate achieving complete control (i.e. no surviving plants) [1] | Average % Survival of 14 repetitions ([1]; 0.25 g ai/ha^−1 postemergence) | Average % Survival of 14 repetitions ([1]; 0.5 g ai/ha^−1 postemergence) | Average % Survival of 14 repetitions ([1]; 1 g ai/ha^−1 postemergence) | Average % Survival of 14 repetitions ([1]; 2 g ai/ha^−1 postemergence) | Average % Survival of 14 repetitions ([1]; 4 g ai/ha^−1 postemergence) | Average % Survival of 14 repetitions ([1]; 8 g ai/ha^−1 postemergence) | Average % Survival of 14 repetitions ([1]; 16 g ai/ha^−1 postemergence) | Average % Survival of 14 repetitions ([1]; 32 g ai/ha^−1 postemergence) | Average % Survival of 14 repetitions ([1]; 64 g ai/ha^−1 postemergence) | Average % Survival of 14 repetitions ([1]; 128 g ai/ha^−1 postemergence) | Average % Survival of 14 repetitions ([2]; 0.25 g ai/ha^−1 postemergence) | Average % Survival of 14 repetitions ([2]; 0.5 g ai/ha^−1 postemergence) | Average % Survival of 14 repetitions ([2]; 1 g ai/ha^−1 postemergence) | Average % Survival of 14 repetitions ([2]; 2 g ai/ha^−1 postemergence) | Average % Survival of 14 repetitions ([2]; 4 g ai/ha^−1 postemergence) | Average % Survival of 14 repetitions ([2]; 8 g ai/ha^−1 postemergence) | Average % Survival of 14 repetitions ([2]; 16 g ai/ha^−1 postemergence) | Average % Survival of 14 repetitions ([2]; 32 g ai/ha^−1 postemergence) | Average % Survival of 14 repetitions ([2]; 64 g ai/ha^−1 postemergence) | other results
CCOC(=O)C1(C)CC(c2cc(-n3c(=O)cc(C(F)(F)F)n(C)c3=O)c(F)cc2Cl)=NO1 (stereo not drawn) [Compound 8, 3-(2-chloro-4-fluoro-5-(3-methyl-2,6-dioxo-4-trifluoromethyl-3,6-dihydropyrimidin-1(2H)-yl)phenyl)-5-methyl-4,5-dihydroisoxazole-5-carboxylic acid ethyl ester] | 8 g ai/ha^−1 | 100% | 100% | 50% | 43% | 14% | 0% | 0% | 0% | 0% | 0% | 100% | 100% | 100% | 100% | 93% | 50% | 0% | 0% | 0% | use rate achieving complete control (i.e. no surviving plants) ([2]; '128G' population, postemergence): 16 g ai/ha^−1; Average % Survival of 14 repetitions ([2]; 128 g ai/ha^−1 postemergence): 0%; use rate achieving complete control (i.e. no surviving plants) [3]: 16 g ai/ha^−1; Average % Survival of 14 repetitions ([3]; 0.25 g ai/ha^−1 postemergence): 100%; Average % Survival of 14 repetitions ([3]; 0.5 g ai/ha^−1 postemergence): 100%; Average % Survival of 14 repetitions ([3]; 1 g ai/ha^−1 postemergence): 100%; Average % Survival of 14 repetitions ([3]; 2 g ai/ha^−1 postemergence): 100%; Average % Survival of 14 repetitions ([3]; 4 g ai/ha^−1 postemergence): 79%; Average % Survival of 14 repetitions ([3]; 8 g ai/ha^−1 postemergence): 57%; Average % Survival of 14 repetitions ([3]; 16 g ai/ha^−1 postemergence): 0%; Average % Survival of 14 repetitions ([3]; 32 g ai/ha^−1 postemergence): 0%; Average % Survival of 14 repetitions ([3]; 64 g ai/ha^−1 postemergence): 0%; Average % Survival of 14 repetitions ([3]; 128 g ai/ha^−1 postemergence): 0%
CS(=O)(=O)NC(=O)c1cc(Oc2ccc(C(F)(F)F)cc2Cl)ccc1[N+](=O)[O-] [Fomesafen] | 8 g ai/ha^−1 | 100% | 100% | 93% | 71% | 14% | 0% | 0% | 0% | 0% | 0% | 100% | 100% | 100% | 100% | 100% | 100% | 100% | 93% | 36% | individuals killed ([2]; '128G' population, 128 g ai/ha^−1): 5/14; Average % Survival of 14 repetitions ([2]; 128 g ai/ha^−1 postemergence): 36%; use rate achieving complete control (i.e. no surviving plants) [3]: 128 g ai/ha^−1; Average % Survival of 14 repetitions ([3]; 0.25 g ai/ha^−1 postemergence): 100%; Average % Survival of 14 repetitions ([3]; 0.5 g ai/ha^−1 postemergence): 100%; Average % Survival of 14 repetitions ([3]; 1 g ai/ha^−1 postemergence): 100%; Average % Survival of 14 repetitions ([3]; 2 g ai/ha^−1 postemergence): 100%; Average % Survival of 14 repetitions ([3]; 4 g ai/ha^−1 postemergence): 100%; Average % Survival of 14 repetitions ([3]; 8 g ai/ha^−1 postemergence): 100%; Average % Survival of 14 repetitions ([3]; 16 g ai/ha^−1 postemergence): 93%; Average % Survival of 14 repetitions ([3]; 32 g ai/ha^−1 postemergence): 43%; Average % Survival of 14 repetitions ([3]; 64 g ai/ha^−1 postemergence): 21%; Average % Survival of 14 repetitions ([3]; 128 g ai/ha^−1 postemergence): 0%
